How the values were obtained:
thoracic aorta = assay: Isolated thoracic aorta contraction caused by 75 mM KCl; parameters: species or system Wistar rat
Experimental: After sacrificing Wistar rat of weight between 300-500 gm, the thoracic aorta was immediately removed and placed in cold Kreb's solution. The fatty connecting tissue surrounding the vessel wall was removed and the thoracic aorta was cut into rings of length 5 mm. The two ends of each ring was pieced and fixed with “Z” shaped platinum wires. […] The sample was given 1 gm of tension and equilibrated for 60 minutes before the following experiments were carried out:
After thoracic aorta had reached equilibrium in the tissue trough, the normal Kreb's solution in the trough was replaced with 75 mM KCl solution to induce vasoconstriction. When the results had been recorded for at least 35 minutes, the aorta was repeatedly rinsed with normal Kreb's solution. After the aorta had re-equilibrated and at least rested for 60 minutes, different concentrations (10^−8, 10^−7, 10^−6, and 10^−5M) of compound 1 were separately added. 30 minutes later, 75 mM KCl was added again to induce vasoconstriction. This method was used to compare the differences in contraction induced by 75 mM KCl on thoracic aorta pre-treated and non-treated with compound 1.
0.1 μM of BayK8644 was first added into the tissue trough. 10 minutes later, 75 mM of concentrated Potassium solution was added to induce thoracic aorta contraction. When vasoconstriction had reached stability, different concentrations of (10^−8, 10^−7, 10^−6, and 10^−5M) compound 1 were separately added. The effects of aorta contraction induced by concentrated Potassium solution were observed.

atrial β 1-receptor = target: T1, atrial β 1-receptor (Rattus norvegicus, UniProt P18090); format: binding, Wistar rat; details: 25° C., 60 minutes
T1 construct: The heart and lung of rat were removed and placed in cold Tris buffer; from tissue; host or cells: membrane preparation from rat atria
T1 sequence (P18090 whole entry): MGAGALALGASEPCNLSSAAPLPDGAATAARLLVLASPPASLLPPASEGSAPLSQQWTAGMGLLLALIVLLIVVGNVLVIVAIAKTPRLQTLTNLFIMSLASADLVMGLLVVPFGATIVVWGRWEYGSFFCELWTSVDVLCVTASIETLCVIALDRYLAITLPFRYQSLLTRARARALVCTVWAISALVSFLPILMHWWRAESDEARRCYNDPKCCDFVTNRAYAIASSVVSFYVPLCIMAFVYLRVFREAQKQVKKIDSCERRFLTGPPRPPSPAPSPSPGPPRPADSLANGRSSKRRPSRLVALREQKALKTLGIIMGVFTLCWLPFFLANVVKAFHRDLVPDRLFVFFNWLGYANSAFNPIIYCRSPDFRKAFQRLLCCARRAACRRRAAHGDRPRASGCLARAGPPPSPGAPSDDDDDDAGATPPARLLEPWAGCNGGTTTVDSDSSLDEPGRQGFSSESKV

lung β 2-receptor = target: T2, lung β 2-receptor (Rattus norvegicus, UniProt P10608); format: binding, Wistar rat; details: 25° C., 60 minutes
T2 construct: The heart and lung of rat were removed and placed in cold Tris buffer; from tissue; host or cells: membrane preparation from rat lung
T2 sequence (P10608 whole entry): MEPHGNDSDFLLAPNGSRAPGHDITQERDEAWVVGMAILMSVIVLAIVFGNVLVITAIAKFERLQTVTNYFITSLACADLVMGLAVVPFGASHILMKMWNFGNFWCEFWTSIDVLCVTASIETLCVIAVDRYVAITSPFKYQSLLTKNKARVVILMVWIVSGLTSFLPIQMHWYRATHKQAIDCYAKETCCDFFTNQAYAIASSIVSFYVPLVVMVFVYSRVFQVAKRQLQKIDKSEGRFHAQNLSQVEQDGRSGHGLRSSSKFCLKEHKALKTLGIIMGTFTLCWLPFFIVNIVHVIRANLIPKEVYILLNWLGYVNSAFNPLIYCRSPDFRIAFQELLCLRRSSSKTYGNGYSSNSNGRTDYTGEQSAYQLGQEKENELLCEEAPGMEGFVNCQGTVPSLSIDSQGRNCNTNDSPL

[1] = target: cerebral cortex calcium ion receptors; details: 25° C., 60 minutes

COC(=O)C1=C(C)NC(C)=C(C(=O)OC)C1c1ccc(OCC(O)CNC(C)(C)C)c(OC)c1 (stereo not drawn) [Compound 1] was tested, and the “effect on 75 mM KCl contracted thoracic aorta” value (thoracic aorta; 10^−8, 10^−7, 10^−6, and 10^−5 M) was “dose-dependant vasoconstriction”, the “Aorta Relaxation” value (thoracic aorta; 10^−8M, 75 mM KCl contraction) was 30 ± 3% and the “effect of 0.1 μM BayK8644 pre-treatment on the aorta effect” value (thoracic aorta; BayK8644 0.1 μM 10 minutes, then concentrated Potassium solution) was “would affect vasoconstriction function”. For the same compound, the “[^3H] CGP-12177 (β1) pKi” value (atrial β 1-receptor) was 6.61 ± 0.46, the “[^3H] CGP-12177 (β2) pKi” value (lung β 2-receptor) was 6.20 ± 0.55 and the “[^3H]nitrendipine Ca^2+ PKi” value [1] was 7.86 ± 0.38.

From patent US20050009886A1, “1,4-Dihydropyridine derivative with a guaiacoxypropanolamine and/or phenoxypropanolamine moiety” (priority 1998, published 2005)
